Laboratory results taken from patent US20050209278A1, “Piperidinyl- and piperazinyl-sulfonylmethyl hydroxamic acids and their use as protease inhibitors” (priority 2002, published 2005).
pIC50: −log10 of the molar value. Like-named read-outs stand apart in the source and are kept apart here.

Legend:
MMP-1 = target: T1, MMP-1 (Homo sapiens, UniProt P03956); assay: In vitro MMP inhibition, IC50 determination (fluorogenic substrate I); type: biochemical; settings: read-out: MMP-1 (IC-50)
T1 construct: made in house; host or cells: MMP-1-transfected HT-1080 cells (spent media)
T1 sequence (P03956 100-469): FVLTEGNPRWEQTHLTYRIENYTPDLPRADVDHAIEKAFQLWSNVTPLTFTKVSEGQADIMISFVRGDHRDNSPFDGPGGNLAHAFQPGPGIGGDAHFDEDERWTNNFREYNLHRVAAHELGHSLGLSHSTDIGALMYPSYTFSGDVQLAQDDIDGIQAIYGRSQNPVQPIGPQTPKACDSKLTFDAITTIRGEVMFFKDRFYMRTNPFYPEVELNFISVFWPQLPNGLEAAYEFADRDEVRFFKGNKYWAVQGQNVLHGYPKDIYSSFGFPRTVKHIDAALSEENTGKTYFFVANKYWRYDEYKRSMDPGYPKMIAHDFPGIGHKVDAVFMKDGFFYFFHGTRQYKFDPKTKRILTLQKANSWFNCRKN

MMP-9 = target: T2, MMP-9 (Homo sapiens, UniProt P14780); assay: as above; type: biochemical; settings: read-out: MMP-9 (IC-50)
T2 construct: made in house; host or cells: MMP-9-transfected HT1080 cells (spent media)
T2 sequence (P14780 107-707 limits assumed): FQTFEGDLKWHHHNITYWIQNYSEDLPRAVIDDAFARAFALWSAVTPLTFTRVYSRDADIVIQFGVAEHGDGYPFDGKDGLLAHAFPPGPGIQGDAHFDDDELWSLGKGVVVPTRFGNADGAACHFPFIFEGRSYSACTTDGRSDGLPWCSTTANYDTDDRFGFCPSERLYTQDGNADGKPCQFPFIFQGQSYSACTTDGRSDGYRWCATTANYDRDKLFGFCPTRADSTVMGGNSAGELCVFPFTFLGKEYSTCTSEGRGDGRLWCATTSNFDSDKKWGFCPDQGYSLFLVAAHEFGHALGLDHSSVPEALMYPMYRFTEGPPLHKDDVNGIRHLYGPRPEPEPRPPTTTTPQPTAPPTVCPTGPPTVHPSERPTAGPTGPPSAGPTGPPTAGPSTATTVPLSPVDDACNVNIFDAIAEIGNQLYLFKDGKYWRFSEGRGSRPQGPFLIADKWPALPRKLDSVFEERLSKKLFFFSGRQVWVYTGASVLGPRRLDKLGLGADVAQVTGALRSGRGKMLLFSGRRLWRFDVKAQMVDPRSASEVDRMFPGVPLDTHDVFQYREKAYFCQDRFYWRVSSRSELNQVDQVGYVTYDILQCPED

pIC50 (MMP-1; value in parenthesis)	pIC50 (MMP-9; value in parenthesis)	pIC50 (MMP-1; value in parentheses)	pIC50 (MMP-9; value in parentheses)	Structure (SMILES)
< 5.00	8.47			CCOCCCc1ccc(N2CCN(S(=O)(=O)C3(C(=O)NO)CCN(CCOC)CC3)CC2)cc1 [Example 179]
< 5.00	8.92			CCCOc1ccc(N2CCN(S(=O)(=O)C3(C(=O)NO)CCN(CCOC)CC3)CC2)cc1F [Example 185]
< 5.00	8.78			COCCN1CCC(C(=O)NO)(S(=O)(=O)N2CCN(c3ccc(CC4CCC4)cc3)CC2)CC1 [Example 183]
< 5.00	8.55			CCOc1ccc(N2CCN(S(=O)(=O)C3(C(=O)NO)CCN(CCOC)CC3)CC2)cc1F [Example 184]
< 5.00	8.65			COCCCc1ccc(N2CCN(S(=O)(=O)C3(C(=O)NO)CCN(CCOC)CC3)CC2)cc1 [Example 180]
		< 5.00	8.85	CCCCOc1ccc(N2CCN(S(=O)(=O)C3(C(=O)NO)CCN(C(=O)CCC)CC3)CC2)cc1 [Example 290]
< 5.00	6.81			CCc1cnc(N2CCN(S(=O)(=O)C3(C(=O)NO)CCN(CCOC)CC3)CC2)nc1 [Example 187]
< 5.00	7.34			COCCN1CCC(C(=O)NO)(S(=O)(=O)N2CCN(c3ccc(CC4CCCCC4)cc3)CC2)CC1 [Example 181]
< 5.00	8.76			COCCN1CCC(C(=O)NO)(S(=O)(=O)N2CCN(c3ccc(CCC4CCCC4)cc3)CC2)CC1 [Example 182]
< 5.00	7.47			CCC(CC)Cc1ccc(N2CCN(S(=O)(=O)C3(C(=O)NO)CCN(CCOC)CC3)CC2)cc1 [Example 188]
< 5.00	7.25			COCCN1CCC(C(=O)NO)(S(=O)(=O)N2CCN(c3ccc(C#N)cc3)CC2)CC1 [Example 186]
